Experimental data taken from patent publication US8129427B2, “2-phenylethylamino derivatives as calcium and/or sodium channel modulators” (Newron Pharmaceuticals S.p.A., priority 2005, dated 2012).
Where a name gives a salt, the structure may show the parent alone.

What was measured:
TTXs sodium channels = experiment: TTXs-sodium channel influx assay (membrane potential fluorescence); type: cell-based, rat; details: ND7/23 cells, veratridine 100 μM
Protocol: ND7/23 rat dorsal root ganglion-derived cell line endogenously expresses a mixed population of TTXs sodium channels (such as Nav1.3, Nav1.2, Nav1.1, Nav1.6). These cells lack of TTXr sodium channels as shown by the absence of their respective transcripts. ND7/23 cells were grown in DMEM supplemented with 10% FBS and 1 mM sodium piruvate.
The cells were seeded at 50,000 cells/well on 96 poly-L-lysine-coated plates and further incubated for 18-24 h before use.
The Membrane Potential Kit Assay (Molecular Devices), based on a negatively charged fluorescent dye able to monitor changes in membrane potential caused by the sodium influx due to the channel opening, was used for the assay.
Cells were incubated with the dye loading for 30 minutes at 25° C. Then, 100 nM of the toxin Anemonia sulcata (used as enhancer of the channel opener response) alone or in the presence of TTX (as reference standard) or test compound were added for further 15 minutes.
The fluorescence (excitation: 530 nm, emission: 565 nm wavelength) was measured before and after (40-45 s) the automated injection of the sodium channel opener veratridine (100 μM) using a Victor plate reader (Perkin Elmer).
The inhibition curves were calculated from 5 concentrations, each in triplicate, and the IC50 determined using a linear regression analysis.

[1] = target: T1, recombinant Nav 1.3 channels (Homo sapiens, UniProt Q9NY46); experiment: Patch clamp studies of sodium currents inhibition in HEK293 cells; type: cell-based; details: tonic block, preconditioning −50 mV (half maximal steady-state inactivated condition); read-out: IC50 (Vhalf)
T1 construct: expressed in transfected cells; host or cells: HEK293 cells
Protocol: Cells and methods: Functional inhibition of the sodium currents was studied using whole cell patch clamp methods (Hamill O. P., Marty A., Neher E., Sakmann B., Sigworth F. J., Pflugers Arch. (1981) 391 (2): 85-100) on HEK293 cells expressing recombinant Nav 1.3 channels. Membrane currents were recorded as described in the example above.
For sodium current recording control bath solution contained (mM): NaCl (80), Choline chloride (38), CaCl2 (1.3), MgCl2 (2), KCl (2), CdCl2 (0.4), NiCl2 (0.3), TEA.Cl (20), Hepes (10), Glucose (10). Internal pipette solution consisted of (mM): EGTA (10), NaCl (10), CaCl2 (1.3), MgCl2 (2), Hepes (10), CsF (130), MgATP (1).
(§1) Compounds were dissolved as 20 mM stock solutions in DMSO and then diluted to the final concentration in the external solutions.
Voltage protocols and data analyses: A two-step protocol was used to determine the voltage dependence of the block:
sodium current was activated by a 30 ms step pulse to 10 mV (test pulse) from a 2000 ms preconditioning potential of −100 mV (resting condition) or −50 mV (half maximal steady-state inactivated condition), respectively.
The amplitude of sodium current peaks evoked by the respective test pulses at a frequency of 0.06 Hz were measured before and after exposure to the test substance. Tonic block of currents was calculated as the difference between the Nacurrent peak measured at the end of a stabilization period in the control external bath solution and the current peak measured at the end of test substance perfusion period (when steady state is reached) divided by control peaks. Drug concentration-inhibition curves were obtained by plotting tonic blocks versus drug concentrations. Dose-response curves were fitted to the tonic block data, according to the logistic equation: y=A2+(A1−A2)/[1+(x/IC50)^p]. A1 and A2 are fixed values of 0 and 1 corresponding to 0 and 100% current inhibition, x is the drug concentration, IC50 is the drug concentration resulting in 50% current inhibition and p is the corresponding slope factor.

L-type calcium channels = type: cell-based, mouse; details: AtT20/D16v-F2 cells, ω-conotoxin 1 μM, 100 mM KCl depolarization
[2] = target: recombinant human N-type channels, h α1B (hCav2.2)+β1b+α2δ-1 subunits (Homo sapiens, UniProt Q00975); experiment: Patch clamp studies of calcium currents inhibition in HEK293 cells; type: cell-based; details: tonic block, preconditioning −50/−55 mV (half maximal steady-state inactivated condition); read-out: IC50 (Vhalf)
Protocol: Functional inhibition of the N-type Ca currents was studied using whole cell patch clamp methods (Hamill O. P., Marty A., Neher E., Sakmann B., Sigworth F. J. Pflugers Arch. (1981) 391: 85-100) on HEK293 cells expressing recombinant human N-type channels, obtained after transient transfection of h α1B (hCav2.2)+β1b+α2δ-1 subunits.
Membrane currents were recorded and filtered at 5 kHz with an Axon Axopatch 200B amplifier and digitized with an Axon Digidata 1322A (Axon Instruments, CA, USA). Voltage clamping of membrane potentials and data acquisition were controlled online with Axon pClamp8 software. Measuring and reference electrodes were AgCl—Ag electrodes. Cells had initial seal resistances of >1 GΩ and access resistances of 4.2±0.2 MΩ. Cells were continuously superfused with extracellular solutions using a Biologic RSC-200.
For calcium currents recording the control bath solution contained (mM): Choline chloride (70), MgCl2 (1), BaCl2 (20), TEA.Cl (50), Hepes (10), Glucose (10). Internal pipette solution consisted of (mM): CsCl (140), EGTA (10), MgCl2 (2), Hepes (10), MgATP (1), GTP Tris (0.3).
as §1
A two-step protocol was used to determine the voltage dependence of the block:
N-type current was activated by a 600 ms step pulse to +10 mV (test pulse) from a 5000 ms preconditioning potential of −110 mV (resting condition) or −50/−55 mV (half maximal steady-state inactivated condition), respectively.
The amplitude of calcium current peaks evoked by the respective test pulses at a frequency of 0.06 Hz were measured before and after exposure to the test substance. Tonic block of currents was calculated as the difference between the peak calcium current measured at the end of a stabilization period in the control external bath solution and peak currents measured at the end of test substance perfusion period (when steady state is reached) divided by control peaks. […]

N-type calcium channels = N-type calcium channels (Homo sapiens, UniProt Q00975); experiment: N-type calcium channel influx assay (fluorescence); type: cell-based; details: differentiated IMR32 cells, nifedipine 1 μM, 100 mM KCl depolarization; read-out: IC50
MAO-B = target: T2, MAO-B (Rattus norvegicus, UniProt P19643); experiment: In vitro MAO-B enzyme activity radioenzymatic assay; type: biochemical; details: 100 μM compound, rat brain crude mitochondrial fraction, 14C-PEA substrate
T2 construct: from tissue; host or cells: rat brain crude mitochondrial fraction
T2 sequence (P19643 1-520): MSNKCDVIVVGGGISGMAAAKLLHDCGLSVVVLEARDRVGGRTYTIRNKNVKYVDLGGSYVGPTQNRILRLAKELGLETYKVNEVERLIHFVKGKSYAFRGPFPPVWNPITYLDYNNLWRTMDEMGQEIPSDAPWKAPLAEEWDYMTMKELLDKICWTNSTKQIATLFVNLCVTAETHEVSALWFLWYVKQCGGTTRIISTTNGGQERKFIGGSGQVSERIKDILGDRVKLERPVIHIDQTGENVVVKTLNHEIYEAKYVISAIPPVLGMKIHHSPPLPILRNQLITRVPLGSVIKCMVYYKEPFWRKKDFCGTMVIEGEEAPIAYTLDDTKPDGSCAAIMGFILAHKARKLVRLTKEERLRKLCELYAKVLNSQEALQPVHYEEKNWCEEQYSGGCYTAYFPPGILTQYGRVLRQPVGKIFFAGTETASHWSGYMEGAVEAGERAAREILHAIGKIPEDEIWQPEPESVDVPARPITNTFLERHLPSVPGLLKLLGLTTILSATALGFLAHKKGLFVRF
Protocol: Male Wistar rats (Harlan, Italy—175-200 g) were sacrificed under light anaesthesia and brains were rapidly removed and homogenized in 8 volumes of ice-cold 0.32 M sucrose buffer containing 0.1 M EDTA, pH 7.4. The crude homogenate was centrifuged at 2220 rpm for 10 minutes and the supernatant recovered. The pellet was homogenized and centrifuged again. The two supernatants were pooled and centrifuged at 9250 rpm for 10 minutes at +4° C. The pellet was resuspended in fresh buffer and centrifuged at 11250 rpm for 10 minutes at +4° C. The resulting pellet was stored at −80° C.
The enzyme activities were assessed with a radioenzymatic assay using the substrates ^14C-serotonin (5-HT) and ^14C-phenylethylamine (PEA) for MAO-A and MAO-B, respectively.
The mitochondrial pellet (500 μg protein) was resuspended in 0.1 M phosphate buffer (pH 7.4). 500 μl of the suspension were added to a 50 μl solution of the test compound or buffer, and incubated for 30 min at 37° C. (preincubation) then the substrate (50 μl) was added. The incubation was carried out for 30 minutes at 37° C. (^14C-5-HT, 5 μM) or for 10 minutes at 37° C. (^14C-PEA, 0.5 μM).
The reaction was stopped by adding 0.2 ml of 37% HCl or perchloric acid. After centrifugation, the deaminated metabolites were extracted with 3 ml of diethyl ether (5-HT) or toluene (PEA) and the radioactive organic phase was measured by liquid scintillation spectrometry at 90% efficiency. The amount of neutral and/or acidic metabolites formed as a result of MAO activity was obtained by measuring the radioactivity of the eluate.
The activity of MAO in the sample, corresponding to a percentage of radioactivity compared with the control activity in the absence of the inhibitor, was expressed as nmoles of substrate transformed/mg protein/min.

[3] = tested on: maximal electroshock seizures in mice; experiment: Maximal electroshock test (MES) in mice; type: in vivo, mouse; details: i.v., 5 minutes before testing
Source text: Animals and Apparatus: Male CDl mice weighing 25 g were used. The procedure described by White et al. (White H. S., Woodhead J. H., Franklin […]., and Wolf H. H. Antiepileptic Drugs (1995) 4th ed: 99-110, Raven Press, Ltd., New York) was followed. An Ugo Basile electroconvulsive generator (Model ECT UNIT 7801) was used to deliver an electrical stimulus sufficient to produce a hindlimb tonic extensor response in at least 97% of control animals. The stimulus was delivered intra-aurally through clip electrodes in mice (0.7 s of a 40 mA shock, with a pulse train of 80 Hz having a pulse duration of 0.4 ms). […] Ten mice were studied per group. Complete suppression of the hindlimb tonic extensor component of seizures was taken as evidence of anticonvulsant activity.

T1 sequence (Q9NY46 whole entry): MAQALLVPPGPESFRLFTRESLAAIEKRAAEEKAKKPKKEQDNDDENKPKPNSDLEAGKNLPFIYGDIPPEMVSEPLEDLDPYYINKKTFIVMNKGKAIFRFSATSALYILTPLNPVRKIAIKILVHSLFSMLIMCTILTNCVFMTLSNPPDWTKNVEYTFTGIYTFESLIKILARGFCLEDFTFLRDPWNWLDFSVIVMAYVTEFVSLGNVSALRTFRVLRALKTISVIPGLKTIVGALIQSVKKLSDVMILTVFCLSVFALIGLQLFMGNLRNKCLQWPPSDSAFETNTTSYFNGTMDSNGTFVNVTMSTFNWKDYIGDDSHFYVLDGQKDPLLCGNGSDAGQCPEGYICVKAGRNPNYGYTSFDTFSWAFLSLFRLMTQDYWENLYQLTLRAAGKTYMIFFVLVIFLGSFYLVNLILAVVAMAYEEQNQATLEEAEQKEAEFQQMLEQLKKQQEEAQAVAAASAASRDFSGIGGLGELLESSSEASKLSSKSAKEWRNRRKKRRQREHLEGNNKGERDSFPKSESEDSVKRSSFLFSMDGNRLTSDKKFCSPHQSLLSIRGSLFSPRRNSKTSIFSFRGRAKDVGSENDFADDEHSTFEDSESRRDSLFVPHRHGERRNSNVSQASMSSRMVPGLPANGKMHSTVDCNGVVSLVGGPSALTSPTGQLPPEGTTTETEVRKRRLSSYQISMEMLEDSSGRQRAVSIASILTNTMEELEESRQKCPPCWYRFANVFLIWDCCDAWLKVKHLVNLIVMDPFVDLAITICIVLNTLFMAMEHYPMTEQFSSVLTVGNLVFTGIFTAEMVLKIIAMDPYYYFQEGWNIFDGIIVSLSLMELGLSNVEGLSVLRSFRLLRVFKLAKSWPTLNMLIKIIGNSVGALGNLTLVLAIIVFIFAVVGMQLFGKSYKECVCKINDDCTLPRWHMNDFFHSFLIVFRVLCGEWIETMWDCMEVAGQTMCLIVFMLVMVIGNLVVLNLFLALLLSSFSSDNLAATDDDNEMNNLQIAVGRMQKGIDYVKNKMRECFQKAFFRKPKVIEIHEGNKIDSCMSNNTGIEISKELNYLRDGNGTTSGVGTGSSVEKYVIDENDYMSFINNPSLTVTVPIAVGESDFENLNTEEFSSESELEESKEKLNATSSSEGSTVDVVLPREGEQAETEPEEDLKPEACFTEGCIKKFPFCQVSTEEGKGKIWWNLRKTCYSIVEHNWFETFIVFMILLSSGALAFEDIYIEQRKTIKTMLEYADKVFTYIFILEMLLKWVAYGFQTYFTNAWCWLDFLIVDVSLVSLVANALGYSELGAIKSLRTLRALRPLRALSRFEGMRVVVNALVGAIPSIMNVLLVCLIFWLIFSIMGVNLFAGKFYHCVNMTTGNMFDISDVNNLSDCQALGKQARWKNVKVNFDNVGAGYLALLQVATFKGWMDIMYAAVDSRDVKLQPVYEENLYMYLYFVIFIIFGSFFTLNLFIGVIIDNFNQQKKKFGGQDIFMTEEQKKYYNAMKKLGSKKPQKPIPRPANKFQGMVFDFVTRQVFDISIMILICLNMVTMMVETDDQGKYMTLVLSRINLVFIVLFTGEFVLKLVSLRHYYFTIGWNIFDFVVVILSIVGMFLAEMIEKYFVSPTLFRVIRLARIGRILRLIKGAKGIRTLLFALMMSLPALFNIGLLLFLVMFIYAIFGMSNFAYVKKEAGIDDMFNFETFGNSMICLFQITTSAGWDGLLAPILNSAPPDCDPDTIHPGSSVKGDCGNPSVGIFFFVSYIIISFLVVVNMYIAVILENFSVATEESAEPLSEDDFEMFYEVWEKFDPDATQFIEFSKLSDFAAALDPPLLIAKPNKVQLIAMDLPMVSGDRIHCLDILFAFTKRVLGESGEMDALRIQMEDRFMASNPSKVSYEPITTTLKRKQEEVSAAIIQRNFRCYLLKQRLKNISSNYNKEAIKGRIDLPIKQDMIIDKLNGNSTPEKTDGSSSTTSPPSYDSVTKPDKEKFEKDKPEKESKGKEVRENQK

| Compound | IC50 (TTXs sodium channels) | IC50 [1] | IC50 (L-type calcium channels) | IC50 [2] | IC50 (N-type calcium channels) | inhibition at 100 µM (MAO-B) | 50% Protection [3] |
| --- | --- | --- | --- | --- | --- | --- | --- |
| CNC(=O)CN(CCc1ccc(OCc2cccc(F)c2)c(OC)c1)CC1CC1 [Example 8, 2-[[2-[4-(3-Fluoro-benzyloxy)-3-methoxy-phenyl]-ethyl]-(cyclopropylmethyl)amino]-N-methyl-acetamide hydrochloride] | 3.5 µM | 9.8 µM | 3.8 µM | 5.2 µM | 2.1 µM |  |  |
| C[C@H](NCc1ccc(OCc2cccc(F)c2)cc1)C(N)=O [safinamide, (S)-(+)-2-[4-(3-fluoro-benzyloxy)-benzylamino]-propanamide, reference compound] |  |  |  |  |  | 100% | (4.0 mg/kg/iv) |
